Reference: US11807625B2, “Capsid inhibitors for the prevention of HIV” (Gilead Sciences, Inc., priority 2019, dated 2023)
Several values for one entry are separate records, joined by “and”; a condition that tells them apart may be missing. Equal entries are not always repeated.

Experiment: PK of compound of Formula (Ia) after single subcutaneous dose of solution formulations in Wistar Han rats
Format: in vivo
Conditions: SC 50 mg/kg; for concentration at 1 h / concentration at 3 h / concentration at 8 h: male, Wistar Han, rat, plasma, sc
Description: Formulations containing the compound of Formula (Ia), or a pharmaceutically acceptable salt thereof, were prepared as solutions and optionally administered subcutaneously or intramuscularly to rats, rabbits, and/or dogs.
(§1) A solution of about 400 mg/mL of the compound of Formula (Ia) having 19.14 w/w % water, 40.66 w/w % PEG 300, 35.20 w/w % of a sodium salt of a compound of Formula (Ia), and 5.00% ethanol was prepared. The solution was administered subcutaneously to male Wistar Han rats at a dose level of about 50 mg/kg and dose volume of 0.125 mL/kg and the pharmacokinetic (PK) profile was determined.
as §1, with “500” for “400”, “16.64” for “19.14”, “35.36” for “40.66”, “43.00” for “35.20”, “0.1” for “0.125”
(§2) A solution of about 400 mg/mL of the compound of Formula (Ia) having 17.00 w/w % water, 36.40 w/w % PEG 300, 35.20 w/w % of a sodium salt of a compound of Formula (Ia), 5.00 w/w % ethanol, and 6.40 w/w % poloxamer 188 was prepared. The solution was administered subcutaneously to male beagle dogs at a dose level of about 12 mg/kg and male Wistar Han rats at a dose level of about 50 mg/kg. The pharmacokinetic profiles were determined, and the results for dogs are summarized in Table and Table, while the results for rats are summarized in Table and Table below.
as §2, with “500” for “400”, “14.06” for “17.00”, “30.12” for “36.40”
A solution of about 300 mg/mL of the compound of Formula (Ia) having 23.33 w/w % water, 48.99 w/w % PEG 300, 26.47 w/w % of a sodium salt of a compound of Formula (Ia), and 1.21 w/w % poloxamer 188 was prepared. The solution was administered subcutaneously to male beagle dogs at a dose level of about 6 mg/kg and male Wistar Han rats at a dose level of about 50 mg/kg. The pharmacokinetic profiles were determined, and the results for dogs are summarized in Table and Table, while the results for rats are summarized in Table and Table below.
as §2, with “18.80” for “17.00”, “40.25” for “36.40”, “34.38” for “35.20”, “1.57” for “6.40”
as §2, with “500” for “400”, “16.29” for “17.00”, “34.88” for “36.40”, “41.92” for “35.20”, “1.91” for “6.40”
A solution of about 400 mg/mL of the compound of Formula (Ia) having 20.90 w/w % water, 44.72 w/w % PEG 300, and 34.38 w/w % of a sodium salt of a compound of Formula (Ia) was prepared. […]

CC(C)(C#Cc1ccc(-c2ccc(Cl)c3c(NS(C)(=O)=O)nn(CC(F)(F)F)c23)c([C@H](Cc2cc(F)cc(F)c2)NC(=O)Cn2nc(C(F)(F)F)c3c2C(F)(F)[C@@H]2C[C@H]32)n1)S(C)(=O)=O [compound of Formula (Ia)]
Plasma concentration (0 h, individual rats, solution R, 400 mg/mL): BLQ | Plasma concentration (0 h, individual rats, solution S, 500 mg/mL): BLQ | Plasma concentration (0 h, individual rats, solution T, 400 mg/mL): BLQ | Plasma concentration (0 h, individual rats, solution U, 500 mg/mL): BLQ | Plasma concentration (0 h, individual rats, solution V, 300 mg/mL): BLQ | Plasma concentration (1.00 h, individual rats, solution R, 400 mg/mL, 50 mg/kg): 59.3 nM and 42.4 nM | Plasma concentration (3.00 h, individual rats, solution R, 400 mg/mL, 50 mg/kg): 164 nM and 104 nM | Plasma concentration (3.00 h, individual rats, solution S, 500 mg/mL, 50 mg/kg): 72.7 nM and 118 nM | Plasma concentration (8.00 h, individual rats, solution R, 400 mg/mL, 50 mg/kg): 131 nM and 84.1 nM | Plasma concentration (8.00 h, individual rats, solution S, 500 mg/mL, 50 mg/kg): 82.0 nM and 127 nM | Plasma concentration (24.0 h, individual rats, solution R, 400 mg/mL, 50 mg/kg): 194 nM and 125 nM | Plasma concentration (24.0 h, individual rats, solution S, 500 mg/mL, 50 mg/kg): 138 nM and 133 nM | Plasma concentration (48.0 h, individual rats, solution R, 400 mg/mL, 50 mg/kg): 162 nM and 107 nM | Plasma concentration (48.0 h, individual rats, solution S, 500 mg/mL, 50 mg/kg): 158 nM and 119 nM | Plasma concentration (72.0 h, individual rats, solution R, 400 mg/mL, 50 mg/kg): 154 nM and 123 nM | Plasma concentration (72.0 h, individual rats, solution S, 500 mg/mL, 50 mg/kg): 166 nM and 120 nM | Plasma concentration (96.0 h, individual rats, solution R, 400 mg/mL, 50 mg/kg): 162 nM and 112 nM | Plasma concentration (96.0 h, individual rats, solution S, 500 mg/mL, 50 mg/kg): 149 nM and 107 nM | Plasma concentration (168 h, individual rats, solution R, 400 mg/mL, 50 mg/kg): 166 nM and 124 nM | Plasma concentration (168 h, individual rats, solution S, 500 mg/mL, 50 mg/kg): 121 nM and 82.3 nM | Plasma concentration (336 h, individual rats, solution R, 400 mg/mL, 50 mg/kg): 275 nM and 256 nM | Plasma concentration (336 h, individual rats, solution S, 500 mg/mL, 50 mg/kg): 277 nM and 140 nM and 131 nM | Plasma concentration (504 h, individual rats, solution R, 400 mg/mL, 50 mg/kg): 319 nM and 393 nM | Plasma concentration (504 h, individual rats, solution S, 500 mg/mL, 50 mg/kg): 211 nM and 235 nM | Plasma concentration (672 h, individual rats, solution R, 400 mg/mL, 50 mg/kg): 286 nM and 442 nM | Plasma concentration (672 h, individual rats, solution S, 500 mg/mL, 50 mg/kg): 254 nM and 227 nM | Plasma concentration (840 h, individual rats, solution R, 400 mg/mL, 50 mg/kg): 313 nM and 443 nM | Plasma concentration (840 h, individual rats, solution S, 500 mg/mL, 50 mg/kg): 221 nM and 250 nM | Plasma concentration (1008 h, individual rats, solution R, 400 mg/mL, 50 mg/kg): 318 nM and 442 nM | Plasma concentration (1008 h, individual rats, solution S, 500 mg/mL, 50 mg/kg): 479 nM and 207 nM and 215 nM | Plasma concentration (1334 h, individual rats, solution R, 400 mg/mL, 50 mg/kg): 266 nM and 421 nM | Plasma concentration (1334 h, individual rats, solution S, 500 mg/mL, 50 mg/kg): 254 nM and 248 nM | Plasma concentration (1680 h, individual rats, solution R, 400 mg/mL, 50 mg/kg): 233 nM and 328 nM | Plasma concentration (1680 h, individual rats, solution S, 500 mg/mL, 50 mg/kg): 216 nM and 189 nM | Plasma concentration (2016 h, individual rats, solution R, 400 mg/mL, 50 mg/kg): 181 nM and 227 nM | Plasma concentration (2016 h, individual rats, solution S, 500 mg/mL, 50 mg/kg): 158 nM and 133 nM | Plasma concentration (2352 h, individual rats, solution R, 400 mg/mL, 50 mg/kg): 182 nM | Plasma concentration (2352 h, individual rats, solution S, 500 mg/mL, 50 mg/kg): 170 nM and 119 nM | Plasma concentration (2688 h, individual rats, solution R, 400 mg/mL, 50 mg/kg): 146 nM and 147 nM | Plasma concentration (2688 h, individual rats, solution S, 500 mg/mL, 50 mg/kg): 148 nM and 126 nM | Plasma concentration (3024 h, individual rats, solution R, 400 mg/mL, 50 mg/kg): 118 nM and 111 nM | Plasma concentration (3360 h, individual rats, solution R, 400 mg/mL, 50 mg/kg): 116 nM and 84.7 nM | Plasma concentration (3696 h, individual rats, solution R, 400 mg/mL, 50 mg/kg): 117 nM and 109 nM and 58.4 nM | Plasma concentration (4032 h, individual rats, solution R, 400 mg/mL, 50 mg/kg): 109 nM and 136 nM and 59.5 nM | Plasma concentration (4704 h, individual rats, solution R, 400 mg/mL, 50 mg/kg): 84.4 nM and 92.7 nM and 29.9 nM | Plasma concentration (5376 h, individual rats, solution R, 400 mg/mL, 50 mg/kg): 62.6 nM and 90.4 nM and 20.9 nM | Plasma concentration (6048 h, individual rats, solution R, 400 mg/mL, 50 mg/kg): 27.4 nM and 48.6 nM and 14.6 nM | Plasma concentration (6720 h, individual rats, solution R, 400 mg/mL, 50 mg/kg): 22.7 nM and 45.8 nM and 10.4 nM | Plasma concentration (7392 h, individual rats, solution R, 400 mg/mL, 50 mg/kg): 13.5 nM and 28.6 nM and 7.43 nM | Plasma concentration (8064 h, individual rats, solution R, 400 mg/mL, 50 mg/kg): 8.39 nM and 24.1 nM and 4.52 nM | concentration at 1 h (50 mg/kg, 1.00 h, individual rats, solution R, 400 mg/mL): 67.6 nM | concentration at 1 h (50 mg/kg, 1.00 h, individual rats, solution U, 500 mg/mL): 42.6 nM | concentration at 1 h (50 mg/kg, 1.00 h, individual rats, solution V, 300 mg/mL): 51.4 nM | concentration at 1 h (50 mg/kg, 1.00 h, mean, n = 3 rats, solution R, 400 mg/mL): 56.4 nM | concentration at 1 h (50 mg/kg, 1.00 h, mean, n = 3 rats, solution S, 500 mg/mL): 49.2 nM | concentration at 1 h (50 mg/kg, 1.00 h, mean, n = 3 rats, solution V, 300 mg/mL): 51.4 nM | concentration at 1 h (50 mg/kg, 1.00 h, mean, n = 5 rats, solution T, 400 mg/mL): 56.4 nM | concentration at 1 h (50 mg/kg, 1.00 h, mean, n = 5 rats, solution U, 500 mg/mL): 50.5 nM | concentration at 3 h (50 mg/kg, 3.00 h, individual rats, solution R, 400 mg/mL): 128 nM | concentration at 3 h (50 mg/kg, 3.00 h, individual rats, solution S, 500 mg/mL): 87.6 nM | concentration at 3 h (50 mg/kg, 3.00 h, individual rats, solution T, 400 mg/mL): 128 nM | concentration at 3 h (50 mg/kg, 3.00 h, individual rats, solution V, 300 mg/mL): 141 nM | concentration at 3 h (50 mg/kg, 3.00 h, mean, n = 3 rats, solution R, 400 mg/mL): 132 nM | concentration at 3 h (50 mg/kg, 3.00 h, mean, n = 3 rats, solution S, 500 mg/mL): 92.8 nM | concentration at 3 h (50 mg/kg, 3.00 h, mean, n = 3 rats, solution V, 300 mg/mL): 116 nM | concentration at 3 h (50 mg/kg, 3.00 h, mean, n = 5 rats, solution T, 400 mg/mL): 135 nM | concentration at 3 h (50 mg/kg, 3.00 h, mean, n = 5 rats, solution U, 500 mg/mL): 110 nM | concentration at 8 h (50 mg/kg, 8.00 h, individual rats, solution R, 400 mg/mL): 120 nM | concentration at 8 h (50 mg/kg, 8.00 h, individual rats, solution S, 500 mg/mL): 92 nM
